{
  "source": "patent US20080280937A1",
  "about": "“Ligand Conjugates of Vinca Alkaloids, Analogs, and Derivatives” (priority 2005, published 2008)",
  "key": {"[1]": {"system": "KB tumors", "type": "in vivo, nu/nu mice", "conditions": "for % T/C / LCK (log of cell kill): animals not showing complete response", "experimental": "Inhibition of Tumor Growth in Mice. The anti-tumor activity of the compounds described herein, when administered intravenously (i.v.) to tumor-bearing animals, was evaluated in nu/nu mice bearing subcutaneous KB tumors. Approximately 8 to 11 days post tumor inoculation in the subcutis of the right axilla with 1×10^6 KB cells (tumor volume range at t0=between 60 and 80 mm^3), mice (5/group) were injected i.v. three times a week (TIW), for a defined length of time (e.g., 2-3 weeks) with (a) a defined dose level on a per kilogram body weight basis of a drug delivery conjugate described herein, or (b) an equivalent dose volume of PBS (control). Tumor growth was measured using calipers at 2-day or 3-day intervals in each treatment group. Tumor volumes were calculated using the equation V=a×b^2/2, where “a” is the length of the tumor and “b” is the width expressed in millimeters."}, "[2]": {"experiment": "Animal Weight Determination", "conditions": "for Weight Loss: nu/nu mice with KB tumors; for weight of Balb/c mice: 3 μmol/kg TIW for 3 weeks (FIG. 25B)"}, "[3]": {"target": "T1, folate receptors (FRs) (Homo sapiens, UniProt P15328)", "T1 construct": "FR-positive KB cells were heavily seeded into 24-well cell culture plates; endogenous in cells; host or cells: KB cells", "T1 sequence (P15328 25-234)": "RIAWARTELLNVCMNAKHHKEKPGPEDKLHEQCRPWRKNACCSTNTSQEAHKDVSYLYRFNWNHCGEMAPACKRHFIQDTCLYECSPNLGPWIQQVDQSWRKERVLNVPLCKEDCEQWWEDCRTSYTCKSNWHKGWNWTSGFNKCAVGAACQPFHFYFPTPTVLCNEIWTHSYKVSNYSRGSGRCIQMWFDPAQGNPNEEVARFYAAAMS", "experiment": "Relative Affinity Assay (displacement of 3H-folic acid on FR-positive KB cells)", "type": "binding", "conditions": "for Relative Folate Receptor Affinity: summary table; for relative binding affinity versus folic acid at folic acid receptors: figure legends, folic acid = 1.0, 1 hour at 37° C", "experimental": "Relative Affinity Assay. The affinity of the compounds described herein for folate receptors (FRs) relative to folate was determined according to a previously described method (Westerhof, G. R., J. H. Schornagel, et al. (1995) Mol. Pharm. 48: 459-471) with slight modification. Briefly, FR-positive KB cells were heavily seeded into 24-well cell culture plates and allowed to adhere to the plastic for 18 h. Spent incubation media was replaced in designated wells with folate-free RPMI (FFRPMI) supplemented with 100 nM ^3H-folic acid in the absence and presence of increasing concentrations of test article or folic acid. Cells were incubated for 60 min at 37° C. and then rinsed 3 times with PBS, pH 7.4, followed by the addition of 500 μL of 1% SDS in PBS, pH 7.4. Cell lysates were then collected and added to individual vials containing 5 mL of scintillation cocktail, and then counted for radioactivity. Negative control tubes contained only the ^3H-folic acid in FFRPMI (no competitor). Positive control tubes contained a final concentration of 1 mM folic acid, and CPMs measured in these samples (representing non-specific binding of label) were subtracted from all samples."}, "[4]": {"system": "folate receptor-positive KB cells", "type": "cell-based, human", "conditions": "for competition by excess folic acid of effect on 3H-thymidine incorporation: with versus without at least 100-fold excess of folic acid", "experimental": "Inhibition of Cellular DNA Synthesis. The compounds described herein were evaluated using an in vitro cytotoxicity assay that predicts the ability of the drug to inhibit the growth of folate receptor-positive KB cells. The compounds were comprised of folate linked to a respective chemotherapeutic drug, as prepared according to the protocols described herein. The KB cells were exposed for predetermined periods of time at 37° C. to the indicated concentrations of folate-drug conjugate in the absence or presence of at least a 100-fold excess of folic acid. The cells were then rinsed with fresh culture medium and incubated in fresh culture medium for 72 hours at 37° C. Cell viability was assessed using a ^3H-thymidine incorporation assay."}, "[5]": {"conditions": "KB cells, without excess folic acid, read-out: IC50, 3H-thymidine incorporation in KB cells"}},
  "note": "“And” between values parts separate entries of the source, which are not always exact repeats. Equal values may be shown once. “Also recorded” adds a separate entry of the source. Read-outs that look alike come from different tables or passages of the source. Marks after values point to notes of the source that are not given here.",
  "data": [
    {"smiles": "CC[C@]1(O)C[C@@H]2CN(CCc3c([nH]c4ccccc34)[C@@](C(=O)OC)(c3cc4c(cc3OC)N(C)[C@H]3[C@@](O)(C(=O)NN)[C@H](O)[C@]5(CC)C=CCN6CC[C@]43[C@@H]65)C2)C1", "note": "[DAVLBH, desacetylvinblastine hydrazide]", "values": [
      {"measurement": "CR (animals of 5 showing a complete response)", "setting": "[1]; 0.5 μmol/kg TIW 2 wk", "result": "0/5"},
      {"measurement": "% T/C", "setting": "[1]; 0.5 μmol/kg TIW 2 wk", "result": 146, "unit": "%"},
      {"measurement": "LCK (log of cell kill)", "setting": "[1]; 0.5 μmol/kg TIW 2 wk", "result": 0.6},
      {"measurement": "CR (animals of 5 showing a complete response)", "setting": "[1]; 0.75 μmol/kg TIW 2 wk", "result": "0/5"},
      {"measurement": "% T/C", "setting": "[1]; 0.75 μmol/kg TIW 2 wk", "result": 265, "unit": "%"},
      {"measurement": "LCK (log of cell kill)", "setting": "[1]; 0.75 μmol/kg TIW 2 wk", "result": 1.8},
      {"measurement": "CR (animals of 5 showing a complete response)", "setting": "[1]; 1 μmol/kg TIW 2 wk", "result": "0/5"},
      {"measurement": "% T/C", "setting": "[1]; 1 μmol/kg TIW 2 wk", "result": 246, "unit": "%"},
      {"measurement": "LCK (log of cell kill)", "setting": "[1]; 1 μmol/kg TIW 2 wk", "result": 1.8},
      {"measurement": "CR (animals of 5 showing a complete response)", "setting": "[1]; 2 μmol/kg TIW 2 wk", "result": "0/5^(d)"},
      {"measurement": "deaths", "setting": "[1]; 2 μmol/kg TIW 2 wk, 5 animals", "result": "^(d)5 deaths."},
      {"measurement": "Weight Loss", "setting": "[2]; 0.5 μmol/kg TIW 2 wk", "result": 0, "unit": "%"},
      {"measurement": "Weight Loss", "setting": "[2]; 0.75 μmol/kg TIW 2 wk", "result": 0, "unit": "%"},
      {"measurement": "Weight Loss", "setting": "[2]; 1 μmol/kg TIW 2 wk", "result": ">10", "unit": "%"},
      {"measurement": "Weight Loss", "setting": "[2]; 2 μmol/kg TIW 2 wk", "result": ">20", "unit": "%"}
    ]},
    {"smiles": "Nc1nc2ncc(CNc3ccc(C(=O)N[C@H](CCC(=O)NC[C@H](N)C(=O)N[C@@H](CC(=O)O)C(=O)N[C@@H](CS)C(=O)O)C(=O)O)cc3)nc2c(=O)[nH]1", "note": "[EC20]", "values": [
      {"measurement": "competition with Example 7 at folate receptors", "setting": "[1]; 40 μmol/kg EC20 (rhenium complex) with 2 μmol/kg Example 7", "result": "acts as a competitor of Example 7 at folate receptors"}
    ]},
    {"smiles": "CC[C@]1(O)C[C@H]2CN(CCc3c([nH]c4ccccc34)[C@@](C(=O)OC)(c3cc4c(cc3OC)N(C)[C@H]3[C@@](O)(C(=O)NNC(=O)OCCSSC[C@H](NC(=O)[C@H](CC(=O)O)NC(=O)[C@H](CC(=O)O)NC(=O)[C@H](CCCNC(=N)N)NC(=O)[C@H](CC(=O)O)NC(=O)CC[C@H](NC(=O)c5ccc(NCc6cnc7nc(N)[nH]c(=O)c7n6)cc5)C(=O)O)C(=O)O)[C@H](O)[C@]5(CC)C=CCN6CC[C@]43[C@@H]65)C2)C1", "note": "[Example 7]", "values": [
      {"measurement": "Relative Folate Receptor Affinity", "setting": "[3]", "result": 0.17},
      {"measurement": "IC50", "setting": "[4]; [5]", "result": "9 nM and ~16 nM"},
      {"measurement": "IC50", "setting": "[4]; summary table, read-out: IC50 KB Cells", "result": "< 100", "unit": "nM"}
    ]},
    {"smiles": "CC[C@]1(O)C[C@H]2CN(CCc3c([nH]c4ccccc34)[C@@](C(=O)OC)(c3cc4c(cc3OC)N(C)[C@H]3[C@@](O)(C(=O)NNC(=O)OCCSSC[C@H](NC(=O)[C@H](CN)NC(=O)[C@H](CC(=O)O)NC(=O)[C@H](CC(=O)O)NC(=O)[C@H](CC(=O)O)NC(=O)CC[C@H](NC(=O)c5ccc(NCc6cnc7nc(N)[nH]c(=O)c7n6)cc5)C(=O)O)C(=O)O)[C@H](O)[C@]5(CC)C=CCN6CC[C@]43[C@@H]65)C2)C1", "note": "[Example 10]", "values": [
      {"measurement": "relative binding affinity versus folic acid at folic acid receptors", "setting": "[3]", "result": 0.24},
      {"measurement": "IC50", "setting": "[4]; [5]", "result": "58 nM and ~58 nM"},
      {"measurement": "competition by excess folic acid of effect on 3H-thymidine incorporation", "setting": "[4]", "result": "folate competes"}
    ]},
    {"smiles": "CC[C@]1(O)C[C@H]2CN(CCc3c([nH]c4ccccc34)[C@@](C(=O)OC)(c3cc4c(cc3OC)N(C)[C@H]3[C@@](O)(C(=O)NNC(=O)OCCSSC[C@H](NC(=O)[C@H](CC(=O)O)NC(=O)[C@H](CC(=O)O)NC(=O)[C@H](CCCNC(=N)N)NC(=O)[C@H](CC(=O)O)NC(=O)[C@H](CCC(=O)O)NC(=O)c5ccc(NCc6cnc7nc(N)[nH]c(=O)c7n6)cc5)C(=O)O)[C@H](O)[C@]5(CC)C=CCN6CC[C@]43[C@@H]65)C2)C1", "note": "[Example 11]", "values": [
      {"measurement": "weight of nu/nu mice", "setting": "[2]; 2 μmol/kg TIW for 3 weeks (FIG. 26B)", "result": "little effect on the weight of the mice; also recorded: absence of an effect"}
    ]},
    {"smiles": "CC[C@]1(O)C[C@H]2CN(CCc3c([nH]c4ccccc34)[C@@](C(=O)OC)(c3cc4c(cc3OC)N(C)[C@H]3[C@@](O)(C(=O)NNC(=O)OCCSSC[C@H](NC(=O)CC[C@H](NC(=O)c5ccc(NCc6cnc7nc(N)[nH]c(=O)c7n6)cc5)C(=O)O)C(=O)O)[C@H](O)[C@]5(CC)C=CCN6CC[C@]43[C@@H]65)C2)C1", "note": "[Example 18]", "values": [
      {"measurement": "relative binding affinity versus folic acid at folic acid receptors", "setting": "[3]", "result": 0.13},
      {"measurement": "Relative Folate Receptor Affinity", "setting": "[3]", "result": 0.13},
      {"measurement": "Folate Receptor Competition", "setting": "[4]; summary table", "result": "Yes"},
      {"measurement": "competition by excess folic acid of effect on 3H-thymidine incorporation", "setting": "[4]", "result": "folate competes"}
    ]},
    {"smiles": "CC[C@]1(O)C[C@H]2CN(CCc3c([nH]c4ccccc34)[C@@](C(=O)OC)(c3cc4c(cc3OC)N(C)[C@H]3[C@@](O)(C(=O)NNC(=O)OCCSSC[C@H](NC(=O)c5ccc(NCc6cnc7nc(N)[nH]c(=O)c7n6)cc5)C(=O)O)[C@H](O)[C@]5(CC)C=CCN6CC[C@]43[C@@H]65)C2)C1", "note": "[Example 19]", "values": [
      {"measurement": "relative binding affinity versus folic acid at folic acid receptors", "setting": "[3]", "result": 0.046},
      {"measurement": "Relative Folate Receptor Affinity", "setting": "[3]", "result": 0.05},
      {"measurement": "Folate Receptor Competition", "setting": "[4]; summary table", "result": "Yes"},
      {"measurement": "competition by excess folic acid of effect on 3H-thymidine incorporation", "setting": "[4]", "result": "folate competes"}
    ]},
    {"smiles": "CC[C@]1(O)C[C@H]2CN(CCc3c([nH]c4ccccc34)[C@@](C(=O)OC)(c3cc4c(cc3OC)N(C)[C@H]3[C@@](O)(C(=O)NNC(=O)OCCSSC[C@H](NC(=O)[C@H](CC(=O)O)NC(=O)[C@H](CC(=O)O)NC(=O)[C@H](CC(=O)O)NC(=O)[C@H](CC(=O)O)NC(=O)CC[C@H](NC(=O)c5ccc(NCc6cnc7nc(N)[nH]c(=O)c7n6)cc5)C(=O)O)C(=O)O)[C@H](O)[C@]5(CC)C=CCN6CC[C@]43[C@@H]65)C2)C1", "note": "[Example 21]", "values": [
      {"measurement": "relative binding affinity versus folic acid at folic acid receptors", "setting": "[3]", "result": 0.16},
      {"measurement": "weight of Balb/c mice", "setting": "[2]", "result": "little effect on the weight of the mice; also recorded: absence of an effect"}
    ]},
    {"smiles": "CC[C@]1(O)C[C@H]2CN(CCc3c([nH]c4ccccc34)[C@@](C(=O)OC)(c3cc4c(cc3OC)N(C)[C@H]3[C@@](O)(C(=O)NCCOC(=O)OCCSSC[C@H](NC(=O)[C@H](CC(=O)O)NC(=O)[C@H](CCCNC(=N)N)NC(=O)[C@H](CC(=O)O)NC(=O)CC[C@H](NC(=O)c5ccc(NCc6cnc7nc(N)[nH]c(=O)c7n6)cc5)C(=O)O)C(=O)O)[C@H](O)[C@]5(CC)C=CCN6CC[C@]43[C@@H]65)C2)C1", "note": "[Example 22]", "values": [
      {"measurement": "relative binding affinity versus folic acid at folic acid receptors", "setting": "[3]", "result": 0.26},
      {"measurement": "weight of Balb/c mice", "setting": "[2]", "result": "little effect on the weight of the mice; also recorded: absence of an effect"}
    ]},
    {"smiles": "Nc1nc2ncc(CNc3ccc(C(=O)N[C@@H](CCC(=O)O)C(=O)O)cc3)nc2c(=O)[nH]1", "note": "[folic acid, reference compound]", "values": [
      {"measurement": "relative binding affinity versus folic acid at folic acid receptors", "setting": "[3]", "result": 1.0}
    ]}
  ]
}
